{"source": "paper PMC10836395", "about": "“Investigation of how gate residues in the main channel affect the catalytic activity of Scytalidium thermophilum catalase” (Acta Crystallographica. Section D, Structural Biology, 2024)", "key": {"[1]": {"target": "CATPO E484A variant (Scytalidium thermophilum (Humicola insolens), UniProt M4GGR5, E503A)", "sequence (M4GGR5 entry or part of it E503A)": "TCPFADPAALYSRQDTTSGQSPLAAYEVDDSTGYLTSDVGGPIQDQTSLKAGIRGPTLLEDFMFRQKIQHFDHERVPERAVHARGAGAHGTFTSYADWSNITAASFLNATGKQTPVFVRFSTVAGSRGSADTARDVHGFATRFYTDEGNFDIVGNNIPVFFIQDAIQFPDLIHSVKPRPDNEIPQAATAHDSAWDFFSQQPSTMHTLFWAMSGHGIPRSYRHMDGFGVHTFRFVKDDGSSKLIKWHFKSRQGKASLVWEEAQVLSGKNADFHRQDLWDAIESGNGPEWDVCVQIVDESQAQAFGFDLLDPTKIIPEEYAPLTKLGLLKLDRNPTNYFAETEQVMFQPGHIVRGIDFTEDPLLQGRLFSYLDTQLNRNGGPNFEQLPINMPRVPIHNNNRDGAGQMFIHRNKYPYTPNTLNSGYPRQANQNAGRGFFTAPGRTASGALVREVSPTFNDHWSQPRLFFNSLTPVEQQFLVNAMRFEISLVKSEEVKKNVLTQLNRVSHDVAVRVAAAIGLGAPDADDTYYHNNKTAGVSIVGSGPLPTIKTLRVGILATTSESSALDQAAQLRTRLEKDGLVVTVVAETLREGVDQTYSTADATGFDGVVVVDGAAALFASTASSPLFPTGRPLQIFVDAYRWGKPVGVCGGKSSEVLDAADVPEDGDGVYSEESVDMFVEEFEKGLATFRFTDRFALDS", "experiment": "Substrate-specificity analysis of the phenol oxidase activity", "assay_type": "biochemical"}, "[2]": {"target": "T1, CATPO (Scytalidium thermophilum (Humicola insolens), UniProt M4GGR5)", "T1 sequence (M4GGR5 entry or part of it)": "as the sequence (M4GGR5 entry or part of it E503A) above", "experiment": "Inhibition of catechol oxidation", "assay_type": "biochemical", "settings": "catechol oxidation by CATPO; catechol 1 to 100 mM; read-out: K i"}, "[3]": {"target": "T2, CATPO T188F variant (Scytalidium thermophilum (Humicola insolens), UniProt M4GGR5, T207F)", "T2 sequence (M4GGR5 entry or part of it T207F)": "as the sequence (M4GGR5 entry or part of it E503A) above", "assay_type": "biochemical"}, "[4]": {"target": "CATPO E484I variant (Scytalidium thermophilum (Humicola insolens), UniProt M4GGR5, E503I)", "sequence (M4GGR5 entry or part of it E503I)": "as the sequence (M4GGR5 entry or part of it E503A) above", "assay_type": "biochemical"}, "[5]": {"target": "T3, CATPO T188D variant (Scytalidium thermophilum (Humicola insolens), UniProt M4GGR5, T207D)", "T3 sequence (M4GGR5 entry or part of it T207D)": "as the sequence (M4GGR5 entry or part of it E503A) above", "assay_type": "biochemical"}, "[6]": {"target": "T1, CATPO", "experiment": "Substrate-specificity analysis of the phenol oxidase activity", "assay_type": "biochemical"}, "[7]": {"target": "T4, CATPO E484D variant (Scytalidium thermophilum (Humicola insolens), UniProt M4GGR5, E503D)", "T4 sequence (M4GGR5 entry or part of it E503D)": "as the sequence (M4GGR5 entry or part of it E503A) above", "experiment": "biochemical"}, "[8]": {"target": "T5, T188D (Mycothermus thermophilus, UniProt M4GGR5, T207D)", "T5 construct": "recombinant, pET-28-TEV-CATPO; contains heme b; Rz 0.5", "T5 sequence (M4GGR5 20-717 T207D)": "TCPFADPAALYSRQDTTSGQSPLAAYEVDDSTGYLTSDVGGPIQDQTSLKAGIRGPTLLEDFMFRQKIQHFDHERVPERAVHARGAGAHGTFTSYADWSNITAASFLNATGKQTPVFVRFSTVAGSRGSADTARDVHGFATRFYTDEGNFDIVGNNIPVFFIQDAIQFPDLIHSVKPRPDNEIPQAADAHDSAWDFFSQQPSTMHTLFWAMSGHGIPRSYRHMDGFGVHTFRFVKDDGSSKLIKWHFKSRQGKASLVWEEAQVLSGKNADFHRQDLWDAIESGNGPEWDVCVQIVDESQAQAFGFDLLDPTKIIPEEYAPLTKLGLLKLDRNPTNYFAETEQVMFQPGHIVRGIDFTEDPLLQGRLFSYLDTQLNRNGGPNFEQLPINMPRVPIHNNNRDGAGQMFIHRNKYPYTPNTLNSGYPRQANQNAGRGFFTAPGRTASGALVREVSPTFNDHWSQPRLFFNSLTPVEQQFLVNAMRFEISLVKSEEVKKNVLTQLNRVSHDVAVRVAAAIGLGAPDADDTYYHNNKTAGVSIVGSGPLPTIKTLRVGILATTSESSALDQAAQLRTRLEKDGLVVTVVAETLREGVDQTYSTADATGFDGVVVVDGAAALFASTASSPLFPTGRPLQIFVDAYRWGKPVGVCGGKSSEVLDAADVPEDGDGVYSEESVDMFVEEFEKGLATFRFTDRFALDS", "experiment": "Spectrophotometric phenol oxidase assay without H2O2 at pH 7.0 and 60 °C, initial rates fitted to the Michaelis-Menten equation.", "assay_type": "biochemical", "settings": "read-out: Phenol oxidase K m; n = 3", "method": "(§1) All inhibition assays were performed in triplicate."}, "[9]": {"target": "T6, E484A (Mycothermus thermophilus, UniProt M4GGR5, E503A)", "T6 construct": "recombinant, pET-28-TEV-CATPO; contains heme b; Rz 0.8", "T6 sequence (M4GGR5 20-717 E503A)": "T5 sequence (M4GGR5 20-717 T207D) with D188T, E484A", "experiment": "Spectrophotometric phenol oxidase assay without H2O2 at pH 7.0 and 60 °C, initial rates fitted to the Michaelis-Menten equation.", "assay_type": "biochemical", "settings": "read-out: Phenol oxidase K m; n = 3", "method": "as §1"}, "[10]": {"target": "T3, CATPO T188D variant", "experiment": "biochemical"}, "[11]": {"target": "T2, CATPO T188F variant", "experiment": "biochemical"}, "[12]": {"target": "T7, CATPO T188A variant (Scytalidium thermophilum (Humicola insolens), UniProt M4GGR5, T207A)", "T7 sequence (M4GGR5 entry or part of it T207A)": "as the sequence (M4GGR5 entry or part of it E503A) above", "experiment": "biochemical"}, "[13]": {"target": "T4, CATPO E484D variant", "assay_type": "biochemical"}, "[14]": {"target": "T7, CATPO T188A variant", "assay_type": "biochemical"}}, "note": "Residue numbers refer to the chain shown, from its start. Marks after values point to notes of the source that are not given here.", "data": [{"smiles": "Oc1cccc(O)c1O", "note": "[Pyrogallol, pyrogallol]", "values": [{"measurement": "V max", "setting": "[1]", "value": "50000 ± 156", "unit": "mM/min"}, {"measurement": "k cat/K m", "setting": "[1]", "value": "6000 ± 50 s^−1 M^−1 (×10^2)"}, {"measurement": "K m", "setting": "[1]; pH 7.0 (ABTS pH 5.0), 60°C", "value": "36 ± 0.7", "unit": "mM"}, {"measurement": "Ki", "setting": "[2]", "value": "4.2 ± 0.8", "unit": "mM"}, {"measurement": "V max", "setting": "[3]", "value": "28100 ± 760", "unit": "mM/min"}, {"measurement": "k cat/K m", "setting": "[3]", "value": "3930 ± 250 s^−1 M^−1 (×10^2)"}, {"measurement": "K m", "setting": "[3]; pH 7.0 (ABTS pH 5.0), 60°C", "value": "37 ± 0.5", "unit": "mM"}, {"measurement": "V max", "setting": "[4]", "value": "20300 ± 330", "unit": "mM/min"}, {"measurement": "k cat/K m", "setting": "[4]", "value": "3060 ± 30 s^−1 M^−1 (×10^2)"}, {"measurement": "K m", "setting": "[4]; pH 7.0 (ABTS pH 5.0), 60°C", "value": "40 ± 1.1", "unit": "mM"}, {"measurement": "V max", "setting": "[5]", "value": "15000 ± 150", "unit": "mM/min"}, {"measurement": "k cat/K m", "setting": "[5]", "value": "5710 ± 200 s^−1 M^−1 (×10^2)"}, {"measurement": "K m", "setting": "[5]; pH 7.0 (ABTS pH 5.0), 60°C", "value": "41 ± 1.0", "unit": "mM"}, {"measurement": "V max", "setting": "[6]", "value": "18450 ± 451", "unit": "mM/min"}, {"measurement": "k cat/K m", "setting": "[6]", "value": "960 ± 65 s^−1 M^−1 (×10^2)"}, {"measurement": "Ki", "setting": "[7]", "value": "4.1 ± 0.7", "unit": "mM"}, {"measurement": "K m", "setting": "[8]", "value": "41 ± 1", "unit": "mM"}, {"measurement": "K m", "setting": "[9]", "value": "36 ± 0.7", "unit": "mM"}, {"measurement": "Ki", "setting": "[10]", "value": "55 ± 5.5", "unit": "mM"}, {"measurement": "Ki", "setting": "[11]", "value": "64 ± 6", "unit": "mM"}, {"measurement": "Ki", "setting": "[12]", "value": "4.1 ± 0.8", "unit": "mM"}, {"measurement": "V max", "setting": "[13]", "value": "16800 ± 300", "unit": "mM/min"}, {"measurement": "k cat/K m", "setting": "[13]", "value": "600 ± 50 s^−1 M^−1 (×10^2)"}, {"measurement": "K m", "setting": "[13]; pH 7.0 (ABTS pH 5.0), 60°C", "value": "40 ± 0.5", "unit": "mM"}, {"measurement": "V max", "setting": "[14]", "value": "16200 ± 410", "unit": "mM/min"}, {"measurement": "k cat/K m", "setting": "[14]", "value": "660 ± 88 s^−1 M^−1 (×10^2)"}, {"measurement": "K m", "setting": "[14]; pH 7.0 (ABTS pH 5.0), 60°C", "value": "40 ± 1.0", "unit": "mM"}]}]}
